{"source": "patent US20230149364A1", "about": "“METHODS OF TREATING VIRAL INFECTIONS” (EAGLE PHARMACEUTICALS, INC., priority 2020, published 2023)", "key": {"SARS-CoV-2": {"tested_on": "SARS-CoV-2", "experiment": "Virus neutralization (VN) assay, scoring of SARS-CoV-2 cytopathic effects (CPE) in Vero E6 cells", "assay_type": "cell-based"}}, "note": "Values joined by “and” are separate entries in the source; they are usually repeats but may differ in a detail not shown here. Equal entries are not always repeated. Where two headings read alike, the source gives them in different places."}
{"smiles": "O=C1CN(/N=C/c2ccc(-c3ccc([N+](=O)[O-])cc3)o2)C(O)=N1", "note": "[dantrolene]", "values": [{"measurement": "CPE", "setting": "SARS-CoV-2", "result": "no CPE was observed"}, {"measurement": "Day 2 Read (CPE)", "setting": "SARS-CoV-2", "result": "3/3 wells had No CPE and 3/3 walls n34 > 90% CPE"}, {"measurement": "Day 4 Read (CPE)", "setting": "SARS-CoV-2", "result": "3/3 wells had No CPE and 2/3 wells had > J0% CPE and 1/3 wells had > 90% CPE and 3/3 wells had > 90% CPE"}, {"measurement": "Day 6 Read (CPE)", "setting": "SARS-CoV-2", "result": "3/3 wells had No CPE and 2/3 wells had > 90% CPE and 1/3 wells had > 90% CPE and 3/3 wells had > 90% CPE"}, {"measurement": "Day 2 Read (CPE)", "setting": "SARS-CoV-2; 50 μM dantrolene, Day 2", "result": "3/3 wells had sparse"}, {"measurement": "Day 4 Read (CPE)", "setting": "SARS-CoV-2; 50 μM dantrolene, Day 4", "result": "3/3 wells had sparse"}, {"measurement": "Day 6 Read (CPE)", "setting": "SARS-CoV-2; 50 μM dantrolene, Day 6, cell wraps on: 'confluency but greater than Day 4'", "result": "3/3 wells had sparse"}, {"measurement": "cytopathic effects (virus growth)", "setting": "SARS-CoV-2; 20 and 40 μM dantrolene, all timepoints", "result": "No cytopathic effects"}, {"measurement": "MIC", "setting": "SARS-CoV-2; Severe acute respiratory syndrome coronavirus 2, 144 h, SARS-CoV-2 in Vero E6 cells, no CPE across all time points (6 days), read-out: minimum inhibitory concentration", "result": 20, "unit": "µM"}, {"measurement": "anti-viral activity", "setting": "SARS-CoV-2; lower concentrations of 10 and 5 μM", "result": "also showed anti-viral activity"}, {"measurement": "cell growth at Day 6", "setting": "Vero E6 cells; 50 μM dilution, Day 6 post-infection, decreased compared to lower dilutions", "result": "rebound cell growth"}, {"measurement": "cytopathic effects at highest concentrations", "setting": "Vero E6 cells; 50 and 100 μM, Days 2 and 4, both infected cells and uninfected controls", "result": "showed cytopathic effects"}, {"measurement": "Cytotoxic effects", "setting": "Vero E6 cells; African green monkey", "result": "Cytotoxic effects were only observed at the 2 highest dantrolene concentrations"}, {"measurement": "cell viability of uninfected Vero E6 cells", "setting": "Vero E6 cells; lower dilutions (<50 μM dantrolene), uninfected", "result": "good cell viability"}]}
